pEC50: −log10 of the molar value.
Molecular target: T1, human mAChR M4 (Homo sapiens, UniProt P08173)
T1 construct: expressed in transfected cells; host or cells: CHO-K1 (American Type Culture Collection), stably expressing hM4 and Gqi5
T1 sequence (P08173 1-479): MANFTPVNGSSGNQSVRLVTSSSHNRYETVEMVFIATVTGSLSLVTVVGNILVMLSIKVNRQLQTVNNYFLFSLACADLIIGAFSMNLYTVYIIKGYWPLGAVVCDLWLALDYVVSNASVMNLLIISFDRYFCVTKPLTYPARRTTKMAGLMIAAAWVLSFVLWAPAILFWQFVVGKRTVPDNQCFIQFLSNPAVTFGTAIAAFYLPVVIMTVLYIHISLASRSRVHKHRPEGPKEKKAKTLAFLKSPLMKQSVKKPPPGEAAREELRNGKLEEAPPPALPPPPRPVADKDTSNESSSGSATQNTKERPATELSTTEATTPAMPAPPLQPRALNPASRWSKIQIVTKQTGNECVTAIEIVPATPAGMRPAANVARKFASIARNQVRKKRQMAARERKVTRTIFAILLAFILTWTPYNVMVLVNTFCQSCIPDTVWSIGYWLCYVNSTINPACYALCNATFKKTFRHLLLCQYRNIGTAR
Experiment: mAChR M4 cell-based functional assay: calcium mobilization (Fluo-4, FDSS), potentiation of EC20 acetylcholine response in hM4-Gqi5 CHO-K1 cells
Conditions: human M4; for Emax at 30 µM: CHO-K1, % ACh maximum at 30 μM; for pEC50: potentiation of EC20 acetylcholine response, calcium mobilization
Method in brief: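 CHO-K1 cells stably co-expressing human M4 and chimeric Gqi5, loaded with Fluo-4 AM (50 min, 37 °C). Compounds in 11-point 1:3 series added first; EC20 acetylcholine added at 144 s and again at 230 s. Calcium read on FDSS at 1 Hz; EC50 and Emax from four-parameter logistic fit of potentiated EC20 response.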

| Emax at 30 µM [%] | pEC50 | Compound |
| --- | --- | --- |
| 95 | 9.00 | Cc1cc2nc(C)c(Cl)c(=O)n2nc1N1CCc2ncc(Nc3ccncc3F)cc2C1 [Compound 2-161, 3-chloro-7-(3-((3-fluoropyridin-4-yl)amino)-7,8-dihydro-1,6-naphthyridin-6(5H)-yl)-2,8-dimethyl-4H-pyrimido[1,2-b]pyridazin-4-one] |
| 98 | 6.31 | Cc1cc(-c2cnc3c(c2)CN(c2nn4c(=O)ccnc4cc2C)CC3)n(C)n1 [Compound 1-390, 7-(3-(1,3-dimethyl-1H-pyrazol-5-yl)-7,8-dihydro-1,6-naphthyridin-6(5H)-yl)-8-methyl-4H-pyrimido[1,2-b]pyridazin-4-one] |
| 97 | 7.09 | Cc1cc2nccc(=O)n2nc1N1CCc2ncc(Nc3cccc(OC(F)F)c3)cc2C1 [Compound 2-71, 7-(3-((3-(difluoromethoxy)phenyl)amino)-7,8-dihydro-1,6-naphthyridin-6(5H)-yl)-8-methyl-4H-pyrimido[1,2-b]pyridazin-4-one] |
| 87 | 6.91 | Cc1cc(=O)n2nc(N3CCc4ncc(-c5ccsc5)cc4C3)c(C)cc2n1 [Compound 1-300, 2,8-dimethyl-7-(3-(thiophen-3-yl)-7,8-dihydro-1,6-naphthyridin-6(5H)-yl)-4H-pyrimido[1,2-b]pyridazin-4-one] |
| 86 | 6.12 | Cc1cc(=O)n2nc(N3CCc4ncc(-c5cnn(C)c5C)cc4C3)c(C)c(C)c2n1 [Compound 1-185, 7-(3-(1,5-dimethyl-1H-pyrazol-4-yl)-7,8-dihydro-1,6-naphthyridin-6(5H)-yl)-2,8,9-trimethyl-4H-pyrimido[1,2-b]pyridazin-4-one] |
| 81 | 6.60 | Cc1cc2nc(C)c(C)c(=O)n2nc1N1CCc2ncc(C(F)(F)F)cc2C1 [Compound 1-25, 2,3,8-trimethyl-7-(3-(trifluoromethyl)-7,8-dihydro-1,6-naphthyridin-6(5H)-yl)-4H-pyrimido[1,2-b]pyridazin-4-one] |
| 77 | 6.34 | Cc1cc(=O)n2nc(N3CCc4ncc(-c5ccc(C(F)(F)F)nc5)cc4C3)c(C)cc2n1 [Compound 1-73, 2,8-dimethyl-7-(3-(6-(trifluoromethyl)pyridin-3-yl)-7,8-dihydro-1,6-naphthyridin-6(5H)-yl)-4H-pyrimido[1,2-b]pyridazin-4-one] |
| 96 | 6.72 | COc1ccsc1-c1cnc2c(c1)CN(c1nn3c(=O)cc(C)nc3c(C)c1C)CC2 [Compound 1-303, 7-(3-(3-methoxythiophen-2-yl)-7,8-dihydro-1,6-naphthyridin-6(5H)-yl)-2,8,9-trimethyl-4H-pyrimido[1,2-b]pyridazin-4-one] |
| 80 | 6.38 | Cc1cc(=O)n2nc(N3CCc4ncc(-c5cccc(F)c5)cc4C3)c(C)c(C)c2n1 [Compound 1-203, 7-(3-(3-fluorophenyl)-7,8-dihydro-1,6-naphthyridin-6(5H)-yl)-2,8,9-trimethyl-4H-pyrimido[1,2-b]pyridazin-4-one] |
| 84 | 6.54 | Cc1cc(=O)n2nc(N3CCc4ncc(-c5ccccc5F)cc4C3)c(C)c(C)c2n1 [Compound 1-251, 7-(3-(2-fluorophenyl)-7,8-dihydro-1,6-naphthyridin-6(5H)-yl)-2,8,9-trimethyl-4H-pyrimido[1,2-b]pyridazin-4-one] |
| 87 | 5.97 | Cc1ncc(-c2cnc3c(c2)CN(c2nn4c(=O)ccnc4cc2C)CC3)o1 [Compound 1-397, 8-methyl-7-(3-(2-methyloxazol-5-yl)-7,8-dihydro-1,6-naphthyridin-6(5H)-yl)-4H-pyrimido[1,2-b]pyridazin-4-one] |
| 75 | 5.96 | Cc1cc(=O)n2nc(N3CCc4ncc(-c5cc(F)cc(F)c5F)cc4C3)c(C)c(C)c2n1 [Compound 1-273, 2,8,9-trimethyl-7-(3-(2,3,5-trifluorophenyl)-7,8-dihydro-1,6-naphthyridin-6(5H)-yl)-4H-pyrimido[1,2-b]pyridazin-4-one] |
| 83 | 7.01 | Cc1ccc(-c2cnc3c(c2)CN(c2nn4c(=O)c(Br)cnc4c(C)c2C)CC3)cn1 [Compound 1-88, 3-bromo-8,9-dimethyl-7-(3-(6-methylpyridin-3-yl)-7,8-dihydro-1,6-naphthyridin-6(5H)-yl)-4H-pyrimido[1,2-b]pyridazin-4-one] |
| 65 | 5.93 | Cc1cc2nccc(=O)n2nc1N1CCc2ncc(-n3cccn3)cc2C1 [Compound 2-6, 7-(3-(1H-pyrazol-1-yl)-7,8-dihydro-1,6-naphthyridin-6(5H)-yl)-8-methyl-4H-pyrimido[1,2-b]pyridazin-4-one] |
| 89 | 7.80 | Cc1cc2nccc(=O)n2nc1N1CCc2ncc(N3c4ccc(F)cc4OCC3C)cc2C1 (stereo not shown) [Compound 2-52, 7-(3-(7-fluoro-3-methyl-2,3-dihydro-4H-benzo[b][1,4]oxazin-4-yl)-7,8-dihydro-1,6-naphthyridin-6(5H)-yl)-8-methyl-4H-pyrimido[1,2-b]pyridazin-4-one] |
| 80 | 6.90 | Cc1cc2ncc(Cl)c(=O)n2nc1N1CCc2ncc(-c3cnn(C4CC4)c3)cc2C1 [Compound 1-12, 3-chloro-7-(3-(1-cyclopropyl-1H-pyrazol-4-yl)-7,8-dihydro-1,6-naphthyridin-6(5H)-yl)-8-methyl-4H-pyrimido[1,2-b]pyridazin-4-one] |
| 87 | 6.79 | Cc1ccncc1Nc1cnc2c(c1)CN(c1nn3c(=O)ccnc3cc1C)CC2 [Compound 2-124, 8-methyl-7-(3-((4-methylpyridin-3-yl)amino)-7,8-dihydro-1,6-naphthyridin-6(5H)-yl)-4H-pyrimido[1,2-b]pyridazin-4-one] |
| 83 | 6.06 | Cc1cc(=O)n2nc(N3CCc4ncc(-c5ccc(F)nc5)cc4C3)c(C)cc2n1 [Compound 1-212, 7-(3-(6-fluoropyridin-3-yl)-7,8-dihydro-1,6-naphthyridin-6(5H)-yl)-2,8-dimethyl-4H-pyrimido[1,2-b]pyridazin-4-one] |
| 79 | 6.91 | Cc1c(N2CCc3ncc(-c4ccc(C5CC5)nc4)cc3C2)nn2c(=O)cc(C(F)F)nc2c1C [Compound 1-94, 7-(3-(6-cyclopropylpyridin-3-yl)-7,8-dihydro-1,6-naphthyridin-6(5H)-yl)-2-(difluoromethyl)-8,9-dimethyl-4H-pyrimido[1,2-b]pyridazin-4-one] |
| 85 | 5.92 | Cc1cc(=O)n2nc(N3CCc4ncc(-c5cnn(C6COC6)c5)cc4C3)c(C)cc2n1 [Compound 1-287, 2,8-dimethyl-7-(3-(1-(oxetan-3-yl)-1H-pyrazol-4-yl)-7,8-dihydro-1,6-naphthyridin-6(5H)-yl)-4H-pyrimido[1,2-b]pyridazin-4-one] |
| 66 | 5.85 | Cc1cc(=O)n2nc(N3CCc4ncc(-c5cnn(C6CCOCC6)c5)cc4C3)c(C)c(C)c2n1 [Compound 1-182, 2,8,9-trimethyl-7-(3-(1-(tetrahydro-2H-pyran-4-yl)-1H-pyrazol-4-yl)-7,8-dihydro-1,6-naphthyridin-6(5H)-yl)-4H-pyrimido[1,2-b]pyridazin-4-one] |
| 77 | 6.08 | Cc1cc2nccc(=O)n2nc1N1CCc2ncc(-c3ccc(C(F)(F)F)nc3)cc2C1 [Compound 1-66, 8-methyl-7-(3-(6-(trifluoromethyl)pyridin-3-yl)-7,8-dihydro-1,6-naphthyridin-6(5H)-yl)-4H-pyrimido[1,2-b]pyridazin-4-one] |
| 84 | 7.11 | Cc1cc2nccc(=O)n2nc1N1CCc2ncc(Nc3cccc(F)c3C)cc2C1 [Compound 2-94, 7-(3-((3-fluoro-2-methylphenyl)amino)-7,8-dihydro-1,6-naphthyridin-6(5H)-yl)-8-methyl-4H-pyrimido[1,2-b]pyridazin-4-one] |
| 82 | 6.73 | Cc1cc2nc(C(C)(C)O)cc(=O)n2nc1N1CCc2ncc(C(F)(F)F)cc2C1 [Compound 1-195, 2-(2-hydroxypropan-2-yl)-8-methyl-7-(3-(trifluoromethyl)-7,8-dihydro-1,6-naphthyridin-6(5H)-yl)-4H-pyrimido[1,2-b] pyridazin-4-one] |
| 91 | 7.85 | Cc1c(N2CCc3ncc(N4CCCn5nccc54)cc3C2)nn2c(=O)cc(C(F)F)nc2c1C [Compound 2-31, 2-(difluoromethyl)-7-(3-(6,7-dihydropyrazolo[1,5-a]pyrimidin-4(5H)-yl)-7,8-dihydro-1,6-naphthyridin-6(5H)-yl)-8,9-dimethyl-4H-pyrimido[1,2-b]pyridazin-4-one] |
| 96 | 6.74 | Cc1cncc(Nc2cnc3c(c2)CN(c2nn4c(=O)ccnc4cc2C)CC3)c1 [Compound 2-133, 8-methyl-7-(3-((5-methylpyridin-3-yl)amino)-7,8-dihydro-1,6-naphthyridin-6(5H)-yl)-4H-pyrimido[1,2-b]pyridazin-4-one] |

Reference: patent US20250101041A1, “POSITIVE ALLOSTERIC MODULATORS OF THE MUSCARINIC ACETYLCHOLINE RECEPTOR M4” (Vanderbilt University, priority 2022, published 2025)
